The values that follow come from patent US12325710B2, “Substituted 1,2,3,4,5,6-hexahydroazepino[4,5-b]indoles for treating brain disorders” (priority 2019, dated 2025).

SMILES strings stand for the structures. Entries after “also recorded” stand apart in the source; their conditions may differ.

Data set [1] concerns C57/BL6J mice. Nature of the data set: Two-bottle choice alcohol consumption (binge drinking). In kind it is in vivo, mouse. The protocol: Alcohol Consumption. Male C57/BL6J mice (6-8 weeks old) were obtained from The Jackson Laboratory (Bar Harbor, ME) and were individually housed in a reverse light/dark cycle room (lights on […]). Temperature was kept constant at 22±2° C., and relative humidity was maintained at 50±5%. Mice were given access to food and tap water ad libitum. After one week of habituation to the vivarium, the two-bottle choice alcohol-drinking paradigm was conducted as described previously. For 7 weeks, mice were given intermittent access in their home cage to alcohol. On Mondays, Wednesdays, and Fridays, two bottles were made available for 24 h—one containing 20% ethanol and another containing only water. On Tuesdays, Thursdays, Saturdays, and Sundays, the animals were only given access to water. After 7 weeks, mice were administered TBG (50 mg/kg) or vehicle (saline) via intraperitoneal injection 3 h before the beginning of a drinking session. Ethanol (g/kg) and water (ml/kg) intake were monitored during the first 4 h (initial binge), the first 24 h, and the second 24 h. Next, the animals were only given water for 48 h before the start of another drinking session when ethanol and water consumption was monitored. The placement (right or left) of the bottles was altered in each session to control for side preference. Spillage was monitored using an additional bottle in a nearby unused cage. Alcohol preference was calculated as the ratio between alcohol/(water+alcohol). Mice were tested using a counterbalanced, within subject design with one week of drug-free alcohol drinking regimen between treatments. One mouse was excluded because the bottle was leaking.

A further data set can be described thus: physchem. Conditions: saline or isotonic.
Data set [2] has as its system rat embryonic cortical neurons. Nature of the data set: Dendritogenesis (Sholl analysis) in cultured cortical neurons. Type of data set: cell-based. As for the experimental part:
Embryonic rat cortical neurons were treated for a short period of time (1 h) followed by a suitable growth period (71 h) to measure the psychoplastogenic effects of the compounds described herein. […] Therefore, the effects of ibogalogs 8-17 on dendritic growth was assessed.
Dendritogenesis Experiments. For the dendritogenesis experiments conducted using cultured cortical neurons, timed pregnant Sprague Dawley rats were obtained from Charles River Laboratories (Wilmington, MA). Full culturing, staining, and analysis details were performed as previously described. (Dunlap, L. et al., 2019)

For another data set, the system named is larval zebrafish. The data set is described as follows: Larval zebrafish movement activity during a battery of light and acoustic stimuli. From the text: Stimuli applied over time are indicated under the heatmaps. Colors indicate bright LED light of respective colors, black traces represent the waveforms of acoustic stimuli, and gray vertical lines indicate physical tapping as secondary acoustic stimuli.
Response is […] proportional to classification accuracy; 0-20% indicates no ability and 100% indicates perfect classification. […] The solid line denotes the median and the shading denotes a 95th percentile confidence interval calculated by bootstrap. N=8 wells/condition (64 animals/condition).

The subject of data set [3] is opioid receptors (MOR, KOR, DOR). Nature of the data set: Opioid receptor functional assays (Gi/o-mediated cAMP inhibition). In kind it is cell-based, human. The protocol: (§1) Serotonin and Opioid Receptor Functional Assays. Functional assay screens at 5-HT and opioid receptors were performed in parallel using the same compound dilutions and 384-well format high-throughput assay platforms. Assays assessed activity at all human isoforms of the receptors, except where noted for the mouse 5-HT2A receptor. Receptor constructs in pcDNA vectors were generated from the Presto-Tango GPCR library with minor modifications. All compounds were serially diluted in drug buffer (HBSS, 20 mM HEPES, pH 7.4 supplemented with 0.1% bovine serum albumin and 0.01% ascorbic acid) and dispensed into 384-well assay plates using a FLIPR^TETRA (Molecular Devices). Every plate included a positive control such as 5-HT (for all 5-HT receptors), DADLE (DOR), salvinorin A (KOR), and DAMGO (MOR). For measurements of 5-HT2A, 5-HT2B, and 5-HT2C Gq-mediated calcium flux function, HEK Flp-In 293 T-Rex stable cell lines (Invitrogen) were loaded with Fluo-4 dye for one hour, stimulated with compounds and read for baseline (0-10 seconds) and peak fold-over-basal fluorescence (5 minutes) at 25° C. on the FLIPR^TETRA. For measurement of 5-HT6 and 5-HT7a functional assays, Gs-mediated cAMP accumulation was detected using the split-luciferase GloSensor assay in HEKT cells measuring luminescence on a Microbeta Trilux (Perkin Elmer) with a 15 min drug incubation at 25° C. […]

The target in another data set is human 5-HT2A receptors (Homo sapiens, UniProt P28223). Nature of the data set: 5-HT2A Gq-mediated calcium flux functional assay (human). Type of data set: cell-based. As for the experimental part:
as §1

The subject of data set [4] is C57/BL6J mice. Nature of the data set: Forced swim test (FST). In kind it is in vivo, mouse. Conditions: 24 h after drug administration; TBG 50 mg/kg, ketamine 3 mg/kg i.p. The protocol:
Forced Swim Test (FST). Male C57/BL6J mice (9-10 weeks old at time of experiment, n=10 per condition) were obtained from the Jackson Lab and housed 4-5 mice/cage in a UCD vivarium following an IACUC approved protocol. After 1 week in the vivarium each mouse was handled for approximately 1 minute by a experimenter for 3 consecutive days leading up to the first FST. All experiments were carried out by the same experimenter who performed handling. During the FST, mice underwent a 6 min swim session in a clear Plexiglas cylinder 40 cm tall, 20 cm in diameter, and filled with 30 cm of 24±1° C. water. Fresh water was used for every mouse. After handling and habituation to the experimenter, drug-naïve mice first underwent a pretest swim to more reliably induce a depressive phenotype in the subsequent FST sessions. Immobility scores for all mice were determined after the pre-test and mice were randomly assigned to treatment groups to generate groups with similar average immobility scores to be used for the following two FST sessions. […] Experiments were video-recorded and manually scored offline. Immobility time—defined as passive floating or remaining motionless with no activity other than that needed to keep the mouse's head above water—was scored for the last 4 min of the 6 min trial.

Sequence of human 5-HT2A receptors (P28223 whole entry): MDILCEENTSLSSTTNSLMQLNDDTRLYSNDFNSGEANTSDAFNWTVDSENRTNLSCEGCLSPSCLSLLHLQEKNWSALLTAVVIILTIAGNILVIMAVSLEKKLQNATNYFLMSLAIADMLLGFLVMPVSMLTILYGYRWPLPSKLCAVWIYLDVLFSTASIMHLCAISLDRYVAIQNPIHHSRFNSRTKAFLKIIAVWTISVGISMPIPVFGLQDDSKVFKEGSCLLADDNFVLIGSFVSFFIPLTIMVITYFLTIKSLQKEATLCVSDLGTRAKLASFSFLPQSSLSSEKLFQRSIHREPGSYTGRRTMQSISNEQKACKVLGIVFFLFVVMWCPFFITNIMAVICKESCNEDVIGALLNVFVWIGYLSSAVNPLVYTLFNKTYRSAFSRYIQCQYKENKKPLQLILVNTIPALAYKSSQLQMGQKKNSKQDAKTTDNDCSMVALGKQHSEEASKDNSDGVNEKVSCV

The term solubility denotes the dissolved amount per volume that the medium holds. Lower therefore signals a poorly soluble substance. For `COc1ccc2c3c([nH]c2c1)CCN(C)CC3` [TBG], in the data set on C57/BL6J mice [1] (TBG 50 mg/kg i.p.), the “EtOH consumption in the days following administration” value is recorded as “long-lasting decreases in EtOH consumption; also recorded: lower for at least two days”; the “EtOH preference during binge drinking session” value is “reduces EtOH consumption and preference”; the water intake entry is given as “without impacting H2O intake; also recorded: not affected”. Also, the “EtOH consumption during binge drinking session” value in the data set with C57/BL6J mice [1] (first 4 h, TBG 50 mg/kg i.p. 3 h before session) is “reduces EtOH consumption and preference; also recorded: robustly reduces binge drinking”. The solubility in the data set “physchem” is at least 40 mg/mL. Also, in data set [2] (DIV6), the “dendritic arbor complexity (Sholl analysis, Nmax)” value is “increased dendritic arbor complexity”. In data set [2] (ketanserin pretreatment), the “effect on dendritic growth after pretreatment with ketanserin (5-HT2A antagonist)” value is on record as “blocked by the 5-HT2A antagonist ketanserin; also recorded: completely abrogated its effects”. Moreover, in the data set with larval zebrafish (200 μM), the “behavioral phenotype at highest concentration versus lethal control” value was “did not produce this phenotype”. The “behavioral phenotype with increasing concentration versus vehicle and lethal control (eugenol, 100 μM)” value in the data set with larval zebrafish (1 h treatment, concentration-response) was “do not produce movement responses in larval zebrafish similar to a lethal concentration of eugenol”. The “machine learning classification of movement responses” value in the data set on larval zebrafish (highest concentrations (200 μM)) is listed as “more similar to vehicle controls than to ibogaine, noribogaine, or lethal controls”. In data set [3], the opioid agonist activity result is recorded as “weak or no opioid agonist activity”. Besides, the “agonist activity at human 5-HT2A receptors” value at human 5-HT2A receptors is “potent agonist activity”. Moreover, the “immobility in FST” value with C57/BL6J mice [4] is given as “antidepressant-like effects; also recorded: significantly reduced immobility”.
